Measurements from ChEMBL document CHEMBL1681685, “A novel class of dual mPGES-1/5-LO inhibitors based on the α-naphthyl pirinixic acid scaffold” (Bioorg Med Chem Lett, 2011).
Activity calls are given as the source filed them. No cut-off for these calls is given here.

Legend:
[1] = molecular target: T1, Polyunsaturated fatty acid 5-lipoxygenase (Homo sapiens, UniProt P09917); assay: Inhibition of 5-lipoxygenase in human PMNL
T1 sequence (P09917 whole entry): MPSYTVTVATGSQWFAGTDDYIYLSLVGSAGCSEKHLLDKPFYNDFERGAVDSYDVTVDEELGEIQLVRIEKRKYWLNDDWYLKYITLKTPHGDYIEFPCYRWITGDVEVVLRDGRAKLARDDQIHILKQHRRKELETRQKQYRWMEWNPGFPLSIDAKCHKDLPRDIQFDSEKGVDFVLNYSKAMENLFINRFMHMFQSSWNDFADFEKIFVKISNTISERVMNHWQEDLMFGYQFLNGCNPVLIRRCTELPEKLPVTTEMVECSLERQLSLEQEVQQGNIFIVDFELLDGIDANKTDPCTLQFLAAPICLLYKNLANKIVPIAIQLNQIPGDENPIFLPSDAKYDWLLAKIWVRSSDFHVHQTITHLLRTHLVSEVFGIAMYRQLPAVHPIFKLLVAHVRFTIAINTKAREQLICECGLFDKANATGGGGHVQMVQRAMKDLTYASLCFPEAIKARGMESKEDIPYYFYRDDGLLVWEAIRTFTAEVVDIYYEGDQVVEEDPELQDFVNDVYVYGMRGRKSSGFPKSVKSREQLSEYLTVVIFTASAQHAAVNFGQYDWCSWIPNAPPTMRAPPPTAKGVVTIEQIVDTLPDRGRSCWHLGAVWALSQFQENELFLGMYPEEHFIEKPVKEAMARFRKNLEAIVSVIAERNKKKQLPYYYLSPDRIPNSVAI

[2] = molecular target: T2, Prostaglandin E synthase (Homo sapiens) (UniProt O14684); assay: Inhibition of mPGES-1 expressed in IL-1beta-stimulated human A549 cells mitochondrial fraction assessed as remaining activity at 10 uM
T2 sequence (whole entry): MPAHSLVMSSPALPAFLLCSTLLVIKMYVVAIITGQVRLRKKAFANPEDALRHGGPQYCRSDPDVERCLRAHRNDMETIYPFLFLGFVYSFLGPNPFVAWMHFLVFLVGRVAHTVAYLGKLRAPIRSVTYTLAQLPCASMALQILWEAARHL

[3] = molecular target: T3, Polyunsaturated fatty acid 5-lipoxygenase (Homo sapiens) (UniProt P09917); assay: Inhibition of human recombinant 5-lipoxygenase assessed as remaining activity at 10 uM
T3 sequence (whole entry): T1 sequence (P09917 whole entry)

[4] = molecular target: T1, Polyunsaturated fatty acid 5-lipoxygenase; assay: Inhibition of human recombinant 5-lipoxygenase
Prostaglandin E synthase = molecular target: T4, Prostaglandin E synthase (Homo sapiens, UniProt O14684); assay: Inhibition of mPGES-1 expressed in […]-stimulated human A549 cells mitochondrial fraction assessed as conversion of PGH2 to PGE2; assay type: cell-based
T4 sequence (O14684 whole entry): T2 sequence (whole entry)

[5] = molecular target: T3, Polyunsaturated fatty acid 5-lipoxygenase (Homo sapiens); assay: Inhibition of 5-lipoxygenase in human PMNL assessed as remaining activity at 10 uM
[6] = molecular target: T2, Prostaglandin E synthase (Homo sapiens); assay: Inhibition of mPGES-1 expressed in […]-stimulated human A549 cells mitochondrial fraction assessed as remaining activity at 10 uM; assay type: cell-based

IC50 [1]	Activity [2]	Activity [3]	IC50 [4]	IC50 (Prostaglandin E synthase)	Activity [5]	Activity [6]	Structure (SMILES)
2.4 µM	90.2%	70.6%	–	–	–	–	CCCCNc1cc(Cl)nc(SC(C(=O)O)c2cccc3ccccc23)n1 (centres undefined)
0.26 µM	–	–	1.9 µM	0.9 µM	–	–	CC(C)(C)c1cc(Nc2cc(Cl)nc(SC(C(=O)O)c3cccc4ccccc34)n2)cc(C(C)(C)C)c1 (centres undefined)
0.24 µM	–	–	1.6 µM	1.55 µM	–	–	O=C(O)C(Sc1nc(Cl)cc(Nc2ccc3c(c2)Cc2ccccc2-3)n1)c1cccc2ccccc12 (centres undefined)
3.1 µM	49.9%	67.3%	–	–	–	–	O=C(O)C(Sc1nc(Cl)cc(Nc2ccc(F)cc2)n1)c1cccc2ccccc12 (centres undefined)
0.5 µM	–	–	5 µM	1.9 µM	–	–	O=C(O)C(Sc1nc(Cl)cc(Nc2cccc(-c3ccccc3)c2)n1)c1cccc2ccccc12 (centres undefined)
0.6 µM	38.8%	–	5.2 µM	–	–	–	O=C(Nc1ccc(Nc2cc(Cl)nc(SC(C(=O)O)c3cccc4ccccc34)n2)cc1)c1ccccc1 (centres undefined)
0.5 µM	36.7%	–	4.2 µM	–	–	–	O=C(O)C(Sc1nc(Cl)cc(Nc2ccc3c(c2)CCC3)n1)c1cccc2ccccc12 (centres undefined)
4.4 µM	49.1%	19%	–	–	–	–	O=C(O)C(Sc1nc(Cl)cc(Nc2ccc3ncccc3c2)n1)c1cccc2ccccc12 (centres undefined)
0.4 µM	–	–	3.1 µM	0.94 µM	–	–	O=C(O)C(Sc1nc(Cl)cc(Nc2ccc(Oc3ccccc3)cc2)n1)c1cccc2ccccc12 (centres undefined)
–	inactive	inactive	–	–	inactive	–	Cc1cccc(Nc2cc(Cl)nc(SCC(=O)O)n2)c1C
0.26 µM	35.8%	–	5.8 µM	–	–	–	CC(C)c1ccc(Nc2cc(Cl)nc(SC(C(=O)O)c3cccc4ccccc34)n2)cc1 (centres undefined)
0.17 µM	–	–	2.3 µM	1.6 µM	–	–	N#Cc1ccc(-c2ccc(Nc3cc(Cl)nc(SC(C(=O)O)c4cccc5ccccc45)n3)cc2)cc1 (centres undefined)
0.3 µM	–	–	2.2 µM	1.5 µM	–	–	O=C(O)C(Sc1nc(Cl)cc(Nc2ccc(Cc3ccccc3)cc2)n1)c1cccc2ccccc12 (centres undefined)
0.4 µM	–	–	2 µM	1.45 µM	–	–	O=C(O)C(Sc1nc(Cl)cc(Nc2ccc(C3CCCCC3)cc2)n1)c1cccc2ccccc12 (centres undefined)
1.8 µM	–	68.9%	–	6.1 µM	–	–	O=C(O)C(Sc1nc(Cl)cc(NCCCc2ccccc2)n1)c1cccc2ccccc12 (centres undefined)
0.5 µM	–	–	2.9 µM	1.9 µM	–	–	O=C(O)C(Sc1nc(Cl)cc(Nc2ccc3ccccc3c2)n1)c1cccc2ccccc12 (centres undefined)
0.8 µM	–	–	8.9 µM	5.1 µM	–	–	O=C(O)C(Sc1nc(Cl)cc(Nc2ccc(Cl)cc2)n1)c1cccc2ccccc12 (centres undefined)
0.7 µM	–	–	8.5 µM	5.7 µM	–	–	Cc1ccc(Nc2cc(Cl)nc(SC(C(=O)O)c3cccc4ccccc34)n2)cc1C (centres undefined)
2.5 µM	42.3%	44.2%	–	–	–	–	O=C(O)C(Sc1nc(Cl)cc(NCCc2ccccc2)n1)c1cccc2ccccc12 (centres undefined)
0.7 µM	–	–	3 µM	0.88 µM	–	–	O=C(O)C(Sc1nc(Cl)cc(NCc2ccc(-c3ccccc3)cc2)n1)c1cccc2ccccc12 (centres undefined)
2.5 µM	–	54.8%	–	–	–	65.3%	CC(C)CNc1cc(Cl)nc(SC(C(=O)O)c2cccc3ccccc23)n1 (centres undefined)
0.7 µM	45.5%	–	5 µM	–	–	–	O=C(O)C(Sc1nc(Cl)cc(Nc2cccc(Cl)c2)n1)c1cccc2ccccc12 (centres undefined)
0.1 µM	–	–	2.3 µM	0.94 µM	–	–	O=C(O)C(Sc1nc(Cl)cc(Nc2ccc(-c3ccccc3)cc2)n1)c1cccc2ccccc12 (centres undefined)
